Laboratory results as given in patent US3975384A, “2,4,5,6-Tetrasubstituted pyrimidines and salts thereof” (Boehringer Ingelheim GmbH, priority 1973, dated 1976).
Like-named read-outs stand apart in the source and are kept apart here.

Legend:
[1] = Acute toxicity (LD50) in mice; settings: mouse, in vivo, observation time 14 days
Protocol: The acute toxicity of the test compounds was determined in mice (observation time: 14 days). The LD50 was calculated from the percentage of animals which died within the observation time after administration, i.v. or p.o., of varying doses [see J. Pharmacol. exper. Therap. 96, 99 (1949)].

[2] = test system: platelet aggregation in human blood plasma; assay: Born and Cross test, ADP-induced platelet aggregation; type: cell-based; settings: 10 min, human platelet-rich plasma, 10 minutes at 37°C, read-out: Born and Cross test (ADP) EC50 (concentration which causes a 50% alteration of the "optical density")
Protocol: 1. Determination of inhibiting effect upon platelet aggregation in human blood plasma by the method of Born and cross, J. Physiol. 170, 397 (1964):
The platelet aggregation was measured in the platelet-rich plasma of normal, healthy human donors. The rate of decline of the optical density of the platelet suspension was measured and recorded photometrically after the addition of adenosine diphosphate (ADP). From the angle of inclination of the density curve, the speed of aggregation was concluded. The optical density was taken as the point on the curve where most light was transmitted. The smallest possible doses of ADP were chosen, but enough to result in irreversible aggregation. The plasma was incubated at 37°C for 10 minutes with varying quantities of the test compound before ADP was added.

[3] = test system: platelet adhesiveness in human blood; assay: Morris retention test, inhibition of platelet adhesiveness; type: cell-based; settings: 10 min; for inhibition at 10 µM: 10 μ mols/liter, 10 minutes at 37°C, glass beads
Protocol: 2. Determination of inhibiting effect on platelet adhesiveness in human blood by the so-called retention test according to Morris (E. Deutsch, E. Gerlach and K. Moser: 1. Internationales Symposium uber Stoffwechsel und Membranpermeabilitat von Erythrozyten and Thrombozyten, Vienna, 1969; Georg Thieme Verlag, Stuttgart, Germany).
To determine the inhibiting action of the test compound on thrombocyte aggregation, 1 ml of human blood was pipetted into each of a plurality of small test tubes, and the test compound was added to give a final concentration of 5 × 10^-^5 mol/liter or 1 × 10^^-5 mol/liter. The tubes were incubated for 10 minutes at 37°C. 1 gm of glass beads (for gas-chromatography) was added to half of the tubes. Then, the stoppered tubes were attached to a disc mounted for rotation about a horizontal axis and rotated for 1 minute. By this means good contact was obtained between the glass beads and the blood. The tubes were then left standing at room temperature for another hour, after which time a satisfactory sedimentation of erythrocytes had taken place. 0.01 ml of the supernatant plasma was removed, diluted 1:8000 with celloscope solution, and the platelet count was read in a celloscope. The percentage reduction of the stickiness due to the presence of the test compound, compared to the tubes containing no glass beads, was measured (average values of 4- 6 tests).

[4] = Hygroscopicity remark on acid addition salt; type: physicochemical; settings: printed beside m.p. of the salt

Row | SMILES | LD50 at 336 h ([1]; iv, read-out: LD50 i.v.) [mg/kg] | LD50 at 336 h ([1]; po, read-out: LD50 p.o.) [mg/kg] | IC50 [2] [nM] | inhibition at 10 µM [3] [%] | hygroscopicity [4] | inhibition at 30 µM ([3]; Concentration: 30μ mols/liter (footnote +)) [%]
1 | Cc1nc(N2CCNCC2)nc(N2CC[S+]([O-])CC2)c1[N+](=O)[O-] [A, 6-methyl-5-nitro-2-piperazino-4-(1-oxido-thiomorpholino)-pyrimidine] | 160 | 600 | 12 | 92 | – | –
2 | Cc1nc(N2CCNCC2)nc(N2CCSCC2)c1[N+](=O)[O-] [B, 6-methyl-5-nitro-2-piperazino-4-thiomorpholino-pyrimidine] | 70 | 620 | 3000 | 66 | – | –
3 | N#Cc1nc(N2CCNCC2)nc(N2CC[S+]([O-])CC2)c1Cl [C, 5-chloro-6-cyano-2-piperazino-4-(1-oxido-thiomorpholino)-pyrimidine] | 101 | 836 | 130 | 92 | – | –
4 | CCOc1nc(N2CCNCC2)nc(N2CC[S+]([O-])CC2)c1[N+](=O)[O-] [D, 6-ethoxy-5-nitro-4-(1-oxido-thiomorpholino)-2-piperazino-pyrimidine] | 150 | 600 | 25 | 100 | – | –
5 | CC(C)Oc1nc(N2CCNCC2)nc(N2CC[S+]([O-])CC2)c1[N+](=O)[O-] [E, 5-nitro-4-(1-oxido-thiomorpholino)-2-piperazino-6-isopropoxy-pyrimidine] | 170 | 500 | 200 | 69 | – | –
6 | CCC(C)Oc1nc(N2CCNCC2)nc(N2CCS(=O)(=O)CC2)c1[N+](=O)[O-] (stereo not shown) [F, 6-sec.Butoxy-4-(1,1-dioxido-thiomorpholino)-5-nitro-2-piperazino-pyrimidine] | 150 | 1500 | 850 | 61 | – | –
7 | CCOc1nc(N2CCNCC2)nc(N2CC[S+]([O-])CC2)c1[N+](=O)[O-] [Fumarate, 6-Ethoxy-5-nitro-4-(1-oxido-thiomorpholino)-2-piperazino-pyrimidine] | – | – | – | – | hydroscopic | –
8 | CSc1nc(N2CCN(C=O)CC2)nc(N2CC[S+]([O-])CC2)c1[N+](=O)[O-] [G, 6-methylthio-5-nitro-4-(1-oxido-thiomorpholino)-2-(N'-formyl-piperazino)-pyrimidine] | – | > 1000 | 50000 | 2 | – | –
9 | CC(=O)CC(=O)N1CCN(c2nc(C)c([N+](=O)[O-])c(N3CC[S+]([O-])CC3)n2)CC1 [H, 6-methyl-5-nitro-4-(1-oxido-thiomorpholino)-2-(N'-acetoacetyl-piperazino)-pyrimidine] | – | > 1000 | 100000 | – | – | 11
